Source: US10472334B2, “Small molecules for inhibiting male fertility” (The University of North Carolina at Chapel Hill, priority 2014, dated 2019)
Like-named read-outs stand apart in the source and are kept apart here.

Tested on: human sperm motility
Test: Computer-assisted sperm analysis (CASA) of human sperm motility
Type: cell-based
Details: for IC50: Homo sapiens, Sperm
Method: In another embodiment, a computer-assisted sperm analysis (CASA) can be used as a live cell compound screen for determining the effect of compounds on human sperm motility. Additionally, to facilitate the IC50 evaluation of compounds using different ejaculates, reducing inter-assay variation due to differences in sperm quality in different semen samples, an index of relative motility inhibition (RMI) was developed.
This is calculated as: RMI=[% motility*VSL]; percentage of motile sperm (% motility) or the percentage of progressively motile sperm (% progressive motility, RPMI) multiplied by the straight-line velocity (VSL); the average velocity measured in a straight line from the beginning to the end of a track in μm/sec.
Normalized RMI can be calculated by dividing the RMI of each experimental condition by its respective DMSO control.
Computer-assisted sperm analysis (CASA) was used as a live cell compound screen for determining the effect of compounds on human sperm motility. Computer-assisted sperm analysis (CASA) was performed using the approach taught in Mitra et al., Biology of Reproduction, Vol. 82, p 491 (2010), to determine the parameters of the control versus compound-treated spermatozoa. The parameters measured are: average pathway velocity (VAP: the average velocity of the smoothed cell path in 1 m/sec), the straight-line velocity (VSL: the average velocity measured in a straight line from the beginning to the end of track in 1 m/sec), the curvilinear velocity (VCL: the average velocity measured over the actual point-to-point track of the cell in 1 m/sec), the lateral head amplitude (ALH: amplitude of lateral head displacement in 1 m), the beat cross-frequency (BCF: frequency of sperm head crossing the sperm average path in Hz), the straightness (STR: the average value of the ratio VSL/VAP in %), and the linearity (LIN: the average value of the ratio VSL/VCL in %). The sperm motility parameters are assessed in pre-warmed (37° C.) two- or four-chambered 20-mm Leja slides, loading 5 μL or 2 μL, respectively, of the samples in each chamber and immediately using CASA. This computerized measuring device included a phase-contrast microscope (Olympus CX41), a camera, a mini-therm stage warmer, an image digitizer, and a computer to store and analyze data. The software used for data analysis is the HTR Ceros 12.3 (Hamilton-Thorne Biosciences). A range of 13 to 20 fields are scanned from each chamber. Progressive cells had to have a minimum of 25 μm/sec VAP and 80% of STR.
To facilitate the IC50 evaluation of compounds using different ejaculates, reducing inter-assay variation due to differences in sperm quality in different semen samples, an index of relative motility inhibition (RMI) was developed. This is calculated as: RMI=[% motility*VSL]; percentage of motile sperm (% motility) or the percentage of progressively motile sperm (% progressive motility, RPMI) multiplied by the straight-line velocity (VSL); the average velocity measured in a straight line from the beginning to the end of a sperm track in μm/sec. Normalized RMI (RPMI) was calculated by dividing the RMI of each experimental condition by its respective DMSO control.
The analysis of sperm motility was carried out with computer-assisted sperm analysis (CASA) (Ceros version 12.3 software; Hamilton-Thorne), using the techniques taught in Mitra et al., Biology of Reproduction, Vol. 82, p 491 (2010).

SMILES: CCOC(=O)CSc1nc(NNC(=O)OC)nc(Nc2ccc(NC(=O)OC)c(O)c2)n1 [TZ4_121, [4-(3-Hydroxy-4-methoxycarbonylamino-phenylamino)-6-(N′methoxycarbonyl-hydrazino)-1,3,5-triazin-2-ylsulfanyl]-acetic acid ethyl ester]
- change in progressive motility (FIG. 7, 12.5 μM): significant decrease in progressive motility
- IC50 (FIG. 10, RMI using % progressive motility, read-out: IC50 in terms of progressive motility): ~4.3 µM
- IC50 (FIGS. 3 and 4, read-out: IC50, CASA, RMI (relative motility)): ~7.5 µM
- IC50 (relative motility index using % progressive motility, read-out: CASA IC50 RPMI): 7.5 µM
- time until infertility would likely result, time course of sperm motility (concentration of around 20 μM, FIG. 5): 3 to 5 min
- sperm killed (within 3 minutes): > 70%
